{"source": "patent US7163946B2", "about": "(Ligand Pharmaceuticals Incorporated, priority 2002, dated 2007)", "format_in_all_cases": "cell-based", "key": {"hPR [1]": {"molecular_target": "T1, hPR (Homo sapiens, UniProt P06401)", "T1 sequence (P06401 679-933 limits assumed)": "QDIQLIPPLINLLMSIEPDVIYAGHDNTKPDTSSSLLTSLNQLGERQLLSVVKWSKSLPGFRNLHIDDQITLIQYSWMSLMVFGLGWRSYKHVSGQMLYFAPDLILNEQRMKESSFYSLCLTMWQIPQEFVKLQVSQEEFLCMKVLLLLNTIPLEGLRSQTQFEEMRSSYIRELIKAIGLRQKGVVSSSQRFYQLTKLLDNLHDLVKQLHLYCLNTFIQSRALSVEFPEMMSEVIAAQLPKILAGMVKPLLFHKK", "assay": "T47D alkaline phosphatase assay, antagonist mode", "conditions": "T47D human breast cancer cells; for Emax: read-out: hPR Antagonists T47D Cells Eff. (%)", "description": "(§1) The potential tissue-selectivities of the selected analogues were examined by using the T47D alkaline phosphatase assay that was developed from human breast cancer cells with endogenous PRs."}, "hPR [2]": {"molecular_target": "T2, hPR (Homo sapiens, UniProt P06401)", "T2 sequence (P06401 1-933)": "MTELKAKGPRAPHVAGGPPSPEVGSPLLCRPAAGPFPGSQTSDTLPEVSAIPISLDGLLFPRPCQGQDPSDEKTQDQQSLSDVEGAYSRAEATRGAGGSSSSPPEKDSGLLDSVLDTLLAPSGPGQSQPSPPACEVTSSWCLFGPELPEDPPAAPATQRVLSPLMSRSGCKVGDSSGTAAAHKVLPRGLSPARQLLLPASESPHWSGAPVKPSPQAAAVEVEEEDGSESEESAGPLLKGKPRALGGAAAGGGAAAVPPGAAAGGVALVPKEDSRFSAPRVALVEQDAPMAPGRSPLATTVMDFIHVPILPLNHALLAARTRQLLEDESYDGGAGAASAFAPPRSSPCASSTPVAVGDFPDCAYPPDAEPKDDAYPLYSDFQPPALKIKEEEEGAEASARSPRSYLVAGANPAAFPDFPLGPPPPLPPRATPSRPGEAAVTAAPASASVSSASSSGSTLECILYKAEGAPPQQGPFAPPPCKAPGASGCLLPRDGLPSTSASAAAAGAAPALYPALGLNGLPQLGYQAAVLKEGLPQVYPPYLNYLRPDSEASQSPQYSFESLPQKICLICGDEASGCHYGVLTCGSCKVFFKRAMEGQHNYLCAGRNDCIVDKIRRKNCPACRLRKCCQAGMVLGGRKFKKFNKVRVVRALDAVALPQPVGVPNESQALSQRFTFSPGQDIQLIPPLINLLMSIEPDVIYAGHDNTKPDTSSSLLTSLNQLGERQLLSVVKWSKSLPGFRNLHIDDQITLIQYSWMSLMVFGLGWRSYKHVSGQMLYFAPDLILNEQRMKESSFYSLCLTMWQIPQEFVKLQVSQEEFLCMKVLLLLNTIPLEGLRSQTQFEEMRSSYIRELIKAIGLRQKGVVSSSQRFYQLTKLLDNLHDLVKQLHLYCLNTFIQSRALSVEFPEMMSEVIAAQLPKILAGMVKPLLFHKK", "assay": "hPR cotransfection assay in CV-1 cells, agonist mode", "conditions": "for hPR Agonist CV-1 Cells Eff. (%) / Emax: relative to maximal response of progesterone as 100%; for Emax: CV-1, CV-1 cells, read-out: hPR Agonist CV-1 Cells Eff. (%)", "protocol": "(§2) Antagonist efficacy was determined as a function (%) of maximal inhibition of a reference agonist at EC50 concentration. All the cotransfection experiments were carried out in 96-well plates by automation (Beckman Biomomek automated workstation)."}, "hPR [3]": {"molecular_target": "T1, hPR", "assay": "T47D alkaline phosphatase assay, agonist mode", "conditions": "T47D human breast cancer cells; for Emax: T47D, read-out: hPR Agonist T47D cells Eff. (%)", "description": "as §1"}, "hPR [4]": {"molecular_target": "T2, hPR", "assay": "hPR cotransfection assay in CV-1 cells, antagonist mode", "conditions": "for hPR Antagonist CV-1 Cells Eff. (%) / Emax: maximal inhibition of reference agonist at EC50 concentration; for Emax: CV-1, CV-1 cells, read-out: hPR Antagonist CV-1 Cells Eff. (%)", "protocol": "as §2"}, "[5]": {"conditions": "Tables 3 and 4, values without footnote, read-out: hPR agonist potencies (EC50 in nM) in the cotransfection assay"}}}
{"smiles": "CC1=CC(C)(C)Nc2ccc3c(c21)C(c1ccc(Cl)c(C)c1)Oc1c(F)cc(F)cc1-3", "note": "(single isomer, unassigned; (+)) [Compound 39, (+)-7,9-difluoro-5-(4-chloro-3-methylphenyl)-1,2-dihydro-2,2,4-trimethyl-5H-chromeno[3,4-f]quinoline]", "values": [{"measurement": "Emax", "setting": "hPR [1]", "result": 29, "unit": "%"}, {"measurement": "IC50", "setting": "hPR [1]; read-out: hPR Antagonists T47D Cells IC50", "result": 4100, "unit": "nM"}, {"measurement": "EC50", "setting": "hPR [2]; CV-1 cells, read-out: hPR Agonist CV-1 Cells EC50", "result": 28, "unit": "nM"}, {"measurement": "hPR Agonist CV-1 Cells Eff. (%)", "setting": "hPR [2]; CV-1 cells", "result": 26, "unit": "%"}, {"measurement": "EC50", "setting": "hPR [3]", "result": "> 10000", "unit": "nM"}, {"measurement": "hPR Agonist T47D cells Eff. (%)", "setting": "hPR [3]", "result": "na (na = not active (i.e. efficacy of <20 and potency of >10,000))"}, {"measurement": "IC50", "setting": "hPR [4]; CV-1 cells", "result": 24, "unit": "nM"}, {"measurement": "hPR Antagonist CV-1 Cells Eff. (%)", "setting": "hPR [4]; CV-1 cells", "result": 62, "unit": "%"}]}
{"smiles": "C[C@]12CCC(=O)C=C1[C@@H]1C[C@@H]1[C@H]1[C@@H]3[C@@H]4C[C@@H]4[C@@]4(CCC(=O)O4)[C@@]3(C)CC[C@@H]12", "note": "[Drospirenone, reference compound]", "values": [{"measurement": "Emax", "setting": "hPR [1]", "result": "< 20", "unit": "%"}, {"measurement": "Emax", "setting": "hPR [2]", "result": 87, "unit": "%"}, {"measurement": "Emax", "setting": "hPR [3]", "result": 117, "unit": "%"}, {"measurement": "Emax", "setting": "hPR [4]", "result": "< 20", "unit": "%"}]}
{"smiles": "COc1ccc2c(c1)-c1ccc3c(c1/C(=C/c1ccccc1C)O2)C(C)=CC(C)(C)N3", "note": "[Formula II X=9-OMe 2-Me-Ph, reference compound]", "values": [{"measurement": "EC50", "setting": "hPR [2]; [5]", "result": 67.5, "unit": "nM"}]}
{"smiles": "COc1ccc2c(c1)-c1ccc3c(c1/C(=C/c1ccccc1)O2)C(C)=CC(C)(C)N3", "note": "[Formula II X=9-OMe Phenyl, reference compound]", "values": [{"measurement": "EC50", "setting": "hPR [2]; [5]", "result": 67, "unit": "nM"}]}
{"smiles": "CC1=CC(C)(C)Nc2ccc3c(c21)/C(=C/c1cc(F)ccc1C)Oc1ccccc1-3", "note": "[Formula II X=H 2-Me-5-F-Ph, reference compound]", "values": [{"measurement": "EC50", "setting": "hPR [2]; [5]", "result": 2.6, "unit": "nM"}]}
{"smiles": "C#C[C@]1(O)CC[C@H]2[C@@H]3CCC4=CC(=O)CC[C@@H]4[C@H]3CC[C@@]21CC", "note": "[Levonorgestrel, reference compound]", "values": [{"measurement": "Emax", "setting": "hPR [1]", "result": "< 20", "unit": "%"}, {"measurement": "Emax", "setting": "hPR [2]", "result": 216, "unit": "%"}, {"measurement": "Emax", "setting": "hPR [3]", "result": 96, "unit": "%"}, {"measurement": "Emax", "setting": "hPR [4]", "result": "< 20", "unit": "%"}]}
{"smiles": "CC(=O)O[C@]1(C(C)=O)CC[C@H]2[C@@H]3C[C@H](C)C4=CC(=O)CC[C@]4(C)[C@H]3CC[C@@]21C", "note": "[MPA, reference compound]", "values": [{"measurement": "hPR Antagonists T47D Cells Eff. (%)", "setting": "hPR [1]", "result": "na (na = not active (i.e. efficacy of <20 and potency of >10,000))"}, {"measurement": "hPR Agonist CV-1 Cells Eff. (%)", "setting": "hPR [2]; CV-1 cells", "result": 88, "unit": "%"}, {"measurement": "hPR Agonist T47D cells Eff. (%)", "setting": "hPR [3]", "result": 114, "unit": "%"}, {"measurement": "hPR Antagonist CV-1 Cells Eff. (%)", "setting": "hPR [4]; CV-1 cells", "result": "na (na = not active (i.e. efficacy of <20 and potency of >10,000))"}]}
{"smiles": "CC(=O)[C@H]1CC[C@H]2[C@@H]3CCC4=CC(=O)CC[C@]4(C)[C@H]3CC[C@]12C", "note": "[Prog., progesterone, reference compound]", "values": [{"measurement": "Emax", "setting": "hPR [1]", "result": "< 20", "unit": "%"}, {"measurement": "Emax", "setting": "hPR [2]", "result": 100, "unit": "%"}, {"measurement": "Emax", "setting": "hPR [3]", "result": 100, "unit": "%"}, {"measurement": "Emax", "setting": "hPR [4]", "result": "< 20", "unit": "%"}]}
{"smiles": "CC#C[C@]1(O)CC[C@H]2[C@@H]3CCC4=CC(=O)CCC4=C3[C@@H](c3ccc(N(C)C)cc3)C[C@@]21C", "note": "[RU486, mifepristone, reference compound]", "values": [{"measurement": "hPR Antagonists T47D Cells Eff. (%)", "setting": "hPR [1]", "result": 94, "unit": "%"}, {"measurement": "hPR Agonist CV-1 Cells Eff. (%)", "setting": "hPR [2]; CV-1 cells", "result": "na (na = not active (i.e. efficacy of <20 and potency of >10,000))"}, {"measurement": "hPR Agonist T47D cells Eff. (%)", "setting": "hPR [3]", "result": "na (na = not active (i.e. efficacy of <20 and potency of >10,000))"}, {"measurement": "hPR Antagonist CV-1 Cells Eff. (%)", "setting": "hPR [4]; CV-1 cells", "result": 94, "unit": "%"}]}
{"smiles": "CN(C)c1ccc([C@H]2C[C@]3(C)[C@@H](CC[C@]3(O)CCCO)[C@@H]3CCC4=CC(=O)CCC4=C32)cc1", "note": "[ZK299, reference compound]", "values": [{"measurement": "Emax", "setting": "hPR [1]", "result": 86, "unit": "%"}, {"measurement": "Emax", "setting": "hPR [2]", "result": "< 20", "unit": "%"}, {"measurement": "Emax", "setting": "hPR [3]", "result": "< 20", "unit": "%"}, {"measurement": "Emax", "setting": "hPR [4]", "result": 99, "unit": "%"}]}
